Assays:
HRI = HRI (Homo sapiens, UniProt Q9BQI3); details: 1 µM; inhibitor
PRKG2 = PRKG2 (Homo sapiens, UniProt Q13237); details: 1 µM; inhibitor
TRKA = TRKA (Homo sapiens, UniProt P04629); details: 1 µM; inhibitor
JNK2 = JNK2 (Homo sapiens, UniProt P45984); details: 1 µM; inhibitor
CAMK4 = CAMK4 (Homo sapiens, UniProt Q16566); details: 1 µM; inhibitor
BRAF = BRAF (Homo sapiens, UniProt P15056); details: 1 µM; inhibitor
ABL1 = ABL1 (Homo sapiens, UniProt P00519); details: 1 µM; inhibitor
TYK2 = TYK2 (Homo sapiens, UniProt P29597); details: 1 µM; inhibitor
MKK4 = MKK4 (Homo sapiens, UniProt P45985); details: 1 µM; inhibitor
PLK3 = PLK3 (Homo sapiens, UniProt Q9H4B4); details: 1 µM; inhibitor
CK1d = CK1d (Homo sapiens, UniProt P48730); details: 1 µM; inhibitor
CK2a1 = CK2a1 (Homo sapiens, UniProt P68400); details: 1 µM; inhibitor
MAPKAPK3 = MAPKAPK3 (Homo sapiens, UniProt Q16644); details: 1 µM; inhibitor
Chain of MAPKAPK3 (Q16644 whole entry): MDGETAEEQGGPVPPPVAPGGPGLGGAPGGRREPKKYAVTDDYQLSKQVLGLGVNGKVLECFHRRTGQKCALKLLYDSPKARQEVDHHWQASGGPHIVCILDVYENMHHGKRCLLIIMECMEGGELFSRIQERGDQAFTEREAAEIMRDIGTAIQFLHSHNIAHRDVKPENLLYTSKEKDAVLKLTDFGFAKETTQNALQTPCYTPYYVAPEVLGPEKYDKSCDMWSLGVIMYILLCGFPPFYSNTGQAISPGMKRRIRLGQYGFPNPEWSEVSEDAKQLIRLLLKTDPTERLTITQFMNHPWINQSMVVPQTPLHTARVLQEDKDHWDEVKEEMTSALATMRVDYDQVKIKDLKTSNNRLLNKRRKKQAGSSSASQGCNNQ

EPHB3 = EPHB3 (Homo sapiens, UniProt P54753); details: 1 µM; inhibitor
CLK1 = CLK1 (Homo sapiens, UniProt P49759); details: 1 µM; inhibitor
BRSK1 = BRSK1 (Homo sapiens, UniProt Q8TDC3); details: 1 µM; inhibitor
ALK = ALK (Homo sapiens, UniProt Q9UM73); details: 1 µM; inhibitor
Chain of ALK (Q9UM73 whole entry): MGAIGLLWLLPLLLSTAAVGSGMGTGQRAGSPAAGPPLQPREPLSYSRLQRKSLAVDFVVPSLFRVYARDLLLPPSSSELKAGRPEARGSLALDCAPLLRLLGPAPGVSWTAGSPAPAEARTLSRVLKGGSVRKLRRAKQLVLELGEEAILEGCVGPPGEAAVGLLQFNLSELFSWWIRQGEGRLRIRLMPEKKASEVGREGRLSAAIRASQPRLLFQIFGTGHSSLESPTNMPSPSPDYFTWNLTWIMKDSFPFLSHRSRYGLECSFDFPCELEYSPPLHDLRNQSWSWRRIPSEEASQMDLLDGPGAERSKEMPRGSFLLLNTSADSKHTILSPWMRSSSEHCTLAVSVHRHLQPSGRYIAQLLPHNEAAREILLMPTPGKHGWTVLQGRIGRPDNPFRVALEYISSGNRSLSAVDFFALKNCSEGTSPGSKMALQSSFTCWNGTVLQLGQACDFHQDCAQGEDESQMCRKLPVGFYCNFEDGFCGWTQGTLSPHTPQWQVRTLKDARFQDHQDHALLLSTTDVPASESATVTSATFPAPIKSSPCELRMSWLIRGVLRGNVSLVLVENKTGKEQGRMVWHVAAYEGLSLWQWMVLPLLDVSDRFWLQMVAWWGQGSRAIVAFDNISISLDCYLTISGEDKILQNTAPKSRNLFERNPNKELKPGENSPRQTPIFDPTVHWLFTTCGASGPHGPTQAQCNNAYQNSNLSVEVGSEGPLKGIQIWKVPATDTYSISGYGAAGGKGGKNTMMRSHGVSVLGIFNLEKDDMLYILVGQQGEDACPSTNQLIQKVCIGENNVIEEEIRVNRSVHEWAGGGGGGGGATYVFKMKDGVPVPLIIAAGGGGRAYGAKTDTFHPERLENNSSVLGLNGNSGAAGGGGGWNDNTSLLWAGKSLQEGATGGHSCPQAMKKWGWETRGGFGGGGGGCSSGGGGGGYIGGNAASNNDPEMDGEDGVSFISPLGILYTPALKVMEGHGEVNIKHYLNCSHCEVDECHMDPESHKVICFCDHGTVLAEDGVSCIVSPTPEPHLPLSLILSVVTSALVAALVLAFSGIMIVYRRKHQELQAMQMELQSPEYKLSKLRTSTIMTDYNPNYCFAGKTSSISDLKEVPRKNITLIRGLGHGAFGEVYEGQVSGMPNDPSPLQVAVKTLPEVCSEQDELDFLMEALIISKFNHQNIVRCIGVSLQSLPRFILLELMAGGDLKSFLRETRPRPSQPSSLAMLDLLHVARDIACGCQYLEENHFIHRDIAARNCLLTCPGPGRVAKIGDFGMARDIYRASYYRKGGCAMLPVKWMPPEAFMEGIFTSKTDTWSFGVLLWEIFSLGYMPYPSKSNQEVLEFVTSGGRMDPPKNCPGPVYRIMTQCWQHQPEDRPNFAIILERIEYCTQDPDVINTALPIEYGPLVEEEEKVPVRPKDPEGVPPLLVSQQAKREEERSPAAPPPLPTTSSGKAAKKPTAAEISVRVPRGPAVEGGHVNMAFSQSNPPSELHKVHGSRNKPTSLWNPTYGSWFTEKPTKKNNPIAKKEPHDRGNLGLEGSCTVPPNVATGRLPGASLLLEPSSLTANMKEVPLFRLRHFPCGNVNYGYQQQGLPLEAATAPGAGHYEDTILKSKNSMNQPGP

ZAP70 = ZAP70 (Homo sapiens, UniProt P43403); details: 1 µM; inhibitor
BMPR1B = BMPR1B (Homo sapiens, UniProt O00238); details: 1 µM; inhibitor
Chain of BMPR1B (O00238 whole entry): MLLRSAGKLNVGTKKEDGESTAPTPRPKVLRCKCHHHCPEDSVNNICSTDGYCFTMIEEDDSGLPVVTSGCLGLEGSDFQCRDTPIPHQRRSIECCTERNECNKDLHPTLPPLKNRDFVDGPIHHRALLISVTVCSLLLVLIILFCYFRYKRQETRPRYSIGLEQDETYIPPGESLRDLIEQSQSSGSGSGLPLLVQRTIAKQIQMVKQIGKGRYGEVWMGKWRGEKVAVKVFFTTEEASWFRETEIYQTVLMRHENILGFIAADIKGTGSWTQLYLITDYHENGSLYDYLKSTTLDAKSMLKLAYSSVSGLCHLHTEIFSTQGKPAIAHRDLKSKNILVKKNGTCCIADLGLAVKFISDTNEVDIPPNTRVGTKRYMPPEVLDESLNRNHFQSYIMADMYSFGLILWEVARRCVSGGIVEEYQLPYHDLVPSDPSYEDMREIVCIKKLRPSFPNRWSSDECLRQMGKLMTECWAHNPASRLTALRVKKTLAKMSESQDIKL

EPHA7 = EPHA7 (Homo sapiens, UniProt Q15375); details: 1 µM; inhibitor
LIMK2 = LIMK2 (Homo sapiens, UniProt P53671); details: 1 µM; inhibitor
MYLK3 = MYLK3 (Homo sapiens, UniProt Q32MK0); details: 1 µM; inhibitor
PKCd = PKCd (Homo sapiens, UniProt Q05655); details: 1 µM; inhibitor
FAK = FAK (Homo sapiens, UniProt Q05397); details: 1 µM; inhibitor
YES = YES (Homo sapiens, UniProt P07947); details: 1 µM; inhibitor
MEK5 = MEK5 (Homo sapiens, UniProt Q13163); details: 1 µM; inhibitor
Chain of MEK5 (Q13163 whole entry): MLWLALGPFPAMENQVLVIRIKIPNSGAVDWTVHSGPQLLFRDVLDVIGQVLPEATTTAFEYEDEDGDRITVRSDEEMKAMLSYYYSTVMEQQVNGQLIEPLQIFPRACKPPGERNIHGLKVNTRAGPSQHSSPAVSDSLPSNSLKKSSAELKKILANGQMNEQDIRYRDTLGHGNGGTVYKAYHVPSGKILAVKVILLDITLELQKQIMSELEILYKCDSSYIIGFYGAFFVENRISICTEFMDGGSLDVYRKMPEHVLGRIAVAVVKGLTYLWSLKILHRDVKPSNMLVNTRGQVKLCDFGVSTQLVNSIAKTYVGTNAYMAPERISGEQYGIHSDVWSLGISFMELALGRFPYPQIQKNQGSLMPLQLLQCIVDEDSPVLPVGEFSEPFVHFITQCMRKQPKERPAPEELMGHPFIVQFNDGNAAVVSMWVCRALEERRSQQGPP

TTBK1 = TTBK1 (Homo sapiens, UniProt Q5TCY1); experiment: biochemical; details: read-out: 21c Remaining activity, percent of control [%]
LTK = LTK (Homo sapiens, UniProt P29376); experiment: biochemical; details: read-out: 21c Remaining activity, percent of control [%]
Chain of LTK (P29376 whole entry): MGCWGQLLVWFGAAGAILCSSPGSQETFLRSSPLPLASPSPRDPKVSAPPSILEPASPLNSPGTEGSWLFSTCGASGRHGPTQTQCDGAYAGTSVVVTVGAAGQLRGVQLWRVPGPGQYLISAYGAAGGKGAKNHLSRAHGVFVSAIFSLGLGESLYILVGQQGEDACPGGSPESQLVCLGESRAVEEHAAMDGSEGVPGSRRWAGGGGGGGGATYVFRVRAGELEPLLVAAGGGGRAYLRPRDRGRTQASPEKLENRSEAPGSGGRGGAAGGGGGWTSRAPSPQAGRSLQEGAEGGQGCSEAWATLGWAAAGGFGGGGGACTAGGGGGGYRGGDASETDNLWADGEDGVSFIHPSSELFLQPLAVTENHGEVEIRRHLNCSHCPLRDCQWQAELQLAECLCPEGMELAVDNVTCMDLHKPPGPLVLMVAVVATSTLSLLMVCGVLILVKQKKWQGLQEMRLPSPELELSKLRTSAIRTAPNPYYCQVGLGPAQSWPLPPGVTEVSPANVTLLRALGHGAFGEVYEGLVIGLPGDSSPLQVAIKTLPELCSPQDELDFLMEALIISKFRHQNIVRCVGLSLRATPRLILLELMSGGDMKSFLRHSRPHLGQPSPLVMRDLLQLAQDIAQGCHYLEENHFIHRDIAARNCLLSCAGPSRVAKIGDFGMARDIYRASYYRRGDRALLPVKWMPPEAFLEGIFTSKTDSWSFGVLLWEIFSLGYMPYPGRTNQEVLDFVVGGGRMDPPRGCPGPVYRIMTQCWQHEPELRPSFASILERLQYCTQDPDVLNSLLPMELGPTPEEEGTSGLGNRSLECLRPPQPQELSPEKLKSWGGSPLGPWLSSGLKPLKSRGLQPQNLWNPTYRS

MST3 = MST3 (Homo sapiens, UniProt Q9Y6E0); experiment: biochemical; details: 1 µM; inhibitor
Chain of MST3 (Q9Y6E0 whole entry): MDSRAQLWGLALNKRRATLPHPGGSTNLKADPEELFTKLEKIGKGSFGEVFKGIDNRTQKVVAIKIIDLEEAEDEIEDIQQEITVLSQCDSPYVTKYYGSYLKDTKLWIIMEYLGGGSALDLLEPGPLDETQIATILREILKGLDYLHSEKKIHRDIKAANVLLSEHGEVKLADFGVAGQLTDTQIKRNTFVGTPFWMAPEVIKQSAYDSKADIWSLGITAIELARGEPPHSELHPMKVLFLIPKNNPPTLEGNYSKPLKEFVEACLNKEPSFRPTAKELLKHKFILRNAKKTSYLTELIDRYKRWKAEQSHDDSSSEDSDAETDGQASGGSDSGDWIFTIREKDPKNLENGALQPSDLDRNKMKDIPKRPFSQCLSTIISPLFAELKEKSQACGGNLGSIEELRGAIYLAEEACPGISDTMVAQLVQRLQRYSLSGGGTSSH

DYRK1B = DYRK1B (Homo sapiens, UniProt Q9Y463); experiment: biochemical; details: read-out: 21c Remaining activity, percent of control [%]
STK33 = STK33 (Homo sapiens, UniProt Q9BYT3); experiment: biochemical; details: read-out: 21c Remaining activity, percent of control [%]

Chain of HRI (Q9BQI3 whole entry): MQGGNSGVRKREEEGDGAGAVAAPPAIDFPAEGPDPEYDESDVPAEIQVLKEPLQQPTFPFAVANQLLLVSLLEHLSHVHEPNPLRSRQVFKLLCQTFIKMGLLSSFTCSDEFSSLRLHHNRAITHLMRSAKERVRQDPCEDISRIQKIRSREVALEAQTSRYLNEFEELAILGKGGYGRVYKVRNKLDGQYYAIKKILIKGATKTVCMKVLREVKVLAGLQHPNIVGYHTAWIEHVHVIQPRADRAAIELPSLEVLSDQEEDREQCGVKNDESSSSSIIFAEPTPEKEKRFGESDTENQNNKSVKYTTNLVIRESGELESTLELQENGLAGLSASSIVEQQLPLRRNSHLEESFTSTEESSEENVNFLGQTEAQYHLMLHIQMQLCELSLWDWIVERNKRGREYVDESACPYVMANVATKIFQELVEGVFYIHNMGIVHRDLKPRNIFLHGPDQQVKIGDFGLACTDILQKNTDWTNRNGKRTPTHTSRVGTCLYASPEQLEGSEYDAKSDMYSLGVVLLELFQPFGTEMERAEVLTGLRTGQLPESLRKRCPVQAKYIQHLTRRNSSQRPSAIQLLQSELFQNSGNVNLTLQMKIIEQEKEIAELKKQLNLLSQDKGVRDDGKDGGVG

`O=C1NCCCCCNc2nc(c3ccccc3n2)Nc2cc1[nH]n2` [21c, (Z)-3^1H-2,5,11-triaza-1(4,2)-quinazolina-3(3,5)-pyrazolacycloundecaphan-4-one] was tested, and the “21c Remaining activity, percent of control [%]” value (HRI) was 98.2%, the “21c Remaining activity, percent of control [%]” value (PRKG2) was 93.5% and the “21c Remaining activity, percent of control [%]” value (TRKA) was 90.8%. The “21c Remaining activity, percent of control [%]” value (JNK2) was 84.0%, the “21c Remaining activity, percent of control [%]” value (CAMK4) was 98.0% and the “21c Remaining activity, percent of control [%]” value (BRAF) was 89.7%. For the same molecule, the “21c Remaining activity, percent of control [%]” value (ABL1) was 106.1%, the “21c Remaining activity, percent of control [%]” value (TYK2) was 116.8% and the “21c Remaining activity, percent of control [%]” value (MKK4) was 127.3%. For the same molecule, the “21c Remaining activity, percent of control [%]” value (PLK3) was 102.7%, the “21c Remaining activity, percent of control [%]” value (CK1d) was 98.8% and the “21c Remaining activity, percent of control [%]” value (CK2a1) was 95.5%. For the same molecule, the “21c Remaining activity, percent of control [%]” value (MAPKAPK3) was 95.7%, the “21c Remaining activity, percent of control [%]” value (EPHB3) was 105.4% and the “21c Remaining activity, percent of control [%]” value (CLK1) was 79.0%. The “21c Remaining activity, percent of control [%]” value (BRSK1) was 112.9%, the “21c Remaining activity, percent of control [%]” value (ALK) was 100.1% and the “21c Remaining activity, percent of control [%]” value (ZAP70) was 108.6%. The “21c Remaining activity, percent of control [%]” value (BMPR1B) was 80.1%, the “21c Remaining activity, percent of control [%]” value (EPHA7) was 103.7% and the “21c Remaining activity, percent of control [%]” value (LIMK2) was 38.2%. For the same molecule, the “21c Remaining activity, percent of control [%]” value (MYLK3) was 86.4%, the “21c Remaining activity, percent of control [%]” value (PKCd) was 91.4% and the “21c Remaining activity, percent of control [%]” value (FAK) was 91.4%. The “21c Remaining activity, percent of control [%]” value (YES) was 81.2%, the “21c Remaining activity, percent of control [%]” value (MEK5) was 70.1% and the remaining activity at 1 µM (TTBK1) was 112%. The remaining activity at 1 µM (LTK) was 92%, the “21c Remaining activity, percent of control [%]” value (MST3) was 13.5% and the remaining activity at 1 µM (DYRK1B) was 79.7%. It also gave a remaining activity at 1 µM (STK33) of 88.7%.

Reference: article doi:10.1101/2023.10.20.563248v1 (biorxiv, 2023)
